Results as given in patent publication US9206167B2, “Piperazine-substituted benzothiophenes for treatment of mental disorders” (Otsuka Pharmaceutical Co., Ltd., priority 2005, dated 2015).
Structures can show the parent of a compound that is named as a salt.

Key:
Dopamine D2 receptor = Dopamine D2 receptor (Rattus norvegicus (Rat), UniProt P61169); assay: Dopamine D2 receptor binding assay ([3H]-raclopride, rat corpus striatum membrane); details: Ki from IC50 by Cheng-Prussoff formula
Protocol: Pharmacological Test 1 1) Dopamine D2 Receptor Binding Assay
Wistar male rats were decapitated, the brain was retrieved immediately and corpus striatum was taken out. It was homogenized in 50 mM tris(hydroxymethyl)aminomethane (Tris)-hydrochloric acid buffer (pH 7.4) of a volume 50 times of the weight of the tissue using a homogenizer with a high-speed rotating blade, and centrifuged at 4° C., 48,000×g for 10 minutes. The obtained precipitate was suspended again in the above-described buffer of a volume 50 times of the weight of the tissue and after incubated at 37° C. for 10 minutes, centrifuged in the above-described condition. The obtained precipitate was suspended in 50 mM (Tris)-hydrochloric acid buffer (containing 120 mM NaCl, 5 mM KCl, 2 mM CaCl2, 1 mM MgCl2, pH 7.4) of a volume 25 times of the weight of the tissue and preserved by freezing at −85° C. till it was used for binding assay as a membrane specimen.
The binding assay was performed using 40 μl of the membrane specimen, 20 μl of [^3H]-raclopride (final concentration 1 to 2 nM), 20 μl of a test drug and 50 mM Tris-hydrochloric acid buffer (containing 120 mM NaCl, 5 mM KCl, 2 mM CaCl2, 1 mM MgCl2, pH 7.4) so that the total amount was 200 μl (final dimethylsulfoxide concentration 1%). The reaction was performed at room temperature for 1 hour and terminated by conducting suction filtration with a cell harvester on a glass fiber filter plate. The filter plate made of glass fiber was washed with 50 mM Tris-hydrochloric acid buffer (pH 7.4), and after dried, a microplate liquid scintillation cocktail was added and the radioactivity was measured with a microplate scintillation counter. Radioactivity in the presence of 10 μM (+)-butaclamol hydrochloride was assumed as nonspecific binding.
(§1) IC50 value was calculated from concentration-dependent reaction using a non-linear analysis program. Ki value was calculated from IC50 value using Cheng-Prussoff formula.

Serotonin (5-HT) uptake = Serotonin (5-HT) uptake (Rattus norvegicus (Rat), UniProt P31652); assay: Serotonin (5-HT) uptake inhibitory activity by rat brain synaptosome; format: biochemical; details: test compound 300 nM, rat frontal cortex synaptosome; read-out: Serotonin uptake inhibitory ratio (%) (300 nM)
Protocol: Measurement of Serotonin (5-HT) Uptake Inhibitory Activity of a Test Compound by Rat Brain Synaptosome
Wistar male rats were decapitated, the brain was retrieved and frontal cortex was dissected out, and it was homogenized in 0.32 M sucrose solution of a weight 20 times of the weight of the tissue using a Potter type homogenizer. The homogenate was centrifuged at 4° C., 1,000×g for 10 minutes, the obtained supernatant was further centrifuged at 4° C., 20,000×g for 20 minutes, and the pellet was suspended in an incubation buffer (20 mM Hepes buffer (pH 7.4) containing 10 mM glucose, 145 mM sodium chloride, 4.5 mM potassium Chloride, 1.2 mM magnesium chloride, 1.5 mM calcium chloride), which was used as crude synaptosome fraction.
5-HT uptake reaction was performed in a volume of 200 μl using a 96-well round bottom plate and pargyline (final concentration 10 μM) and sodium ascorbate (final concentration 0.2 mg/ml) were contained in the incubation buffer upon reaction and used.
Incubation buffer (total counting), non-labeled 5-HT (final concentration 10 μM, non-specific counting) and the diluted test compound (final concentration 300 nM) were added to each well. One-tenth quantity of the final volume of the synaptosome fraction was added and after preincubated at 37° C. for 10 minutes, tritium labeled 5-HT solution (final concentration 8 nM) was added and uptake reaction was started at 37° C. The uptake time was 10 minutes and the reaction was terminated by vacuum filtration through a 96-well fiber glass filter paper plate, and after the filter paper was washed with cold normal saline, it was dried enough and Microscint0 (Perkin-Elmer) was added to the filter and remaining radioactivity on the filter was measured.

[1] = target: Serotonin 5-HT2A receptor (Rattus norvegicus (Rat), UniProt P14842); assay: Serotonin 5-HT2A receptor binding assay ([3H]-Ketanserin, rat frontal cortex membrane); details: Ki from IC50 by Cheng-Prussoff formula
Protocol: 2) Serotonin 5-HT2A Receptor Binding Assay
The assay was performed according to the method by Leysen J E et al. (Leysen J E, Niemegeers C J E, Van Nueten J M and Laduron P M. [3H] Ketanserin (R 41 468), a selective 3H-ligand for serotonin 2 receptor binding sites. Mol. Pharmacol., 1982, 21: 301-314).
Wistar male rats were decapitated, the brain was retrieved immediately and frontal cortex was taken out. It was homogenized in 0.25 M sucrose of a volume 10 times of the weight of the tissue using a Teflon glass homogenizer, and centrifuged at 4° C., 1,000×g for 10 minutes. The obtained supernatant was transferred to another centrifuge tube and suspended in 0.25 M sucrose of a volume 5 times of the weight of the tissue and the precipitate was centrifuged in the above-described condition. The obtained supernatant was combined with the supernatant obtained above and adjusted to a volume 40 times of the weight of the tissue with 50 mM Tris-hydrochloric acid buffer (pH 7.4), and centrifuged at 4° C., 35,000×g for 10 minutes. The obtained precipitate was suspended again in the above-described buffer of a volume 40 times of the weight of the tissue and centrifuged in the above-described condition. The obtained precipitate was suspended in the above-described buffer of a volume 20 times of the weight of the tissue and preserved by freezing at −85° C. till it was used for binding assay as a membrane specimen.
The binding assay was performed using 40 μl of the membrane specimen, 20 μl of [^3H]-Ketanserin (final concentration 1 to 3 nM), 20 μl of a test drug and 50 mM Tris-hydrochloric acid buffer (pH 7.4) so that the total amount was 200 μl (final dimethylsulfoxide concentration 1%). The reaction was performed at 37° C. for 20 minutes and terminated by conducting suction filtration with a cell harvester on a glass fiber filter plate.
The filter plate made of glass fiber was washed with 50 mM Tris-hydrochloric acid buffer (pH 7.4), and after dried, a microplate liquid scintillation cocktail was added and the radioactivity was measured with a microplate scintillation counter. Radioactivity in the presence of 10 μM spiperone was assumed as nonspecific binding.
as §1

Serotonin 5-HT2A receptor, sequence (P14842 whole entry): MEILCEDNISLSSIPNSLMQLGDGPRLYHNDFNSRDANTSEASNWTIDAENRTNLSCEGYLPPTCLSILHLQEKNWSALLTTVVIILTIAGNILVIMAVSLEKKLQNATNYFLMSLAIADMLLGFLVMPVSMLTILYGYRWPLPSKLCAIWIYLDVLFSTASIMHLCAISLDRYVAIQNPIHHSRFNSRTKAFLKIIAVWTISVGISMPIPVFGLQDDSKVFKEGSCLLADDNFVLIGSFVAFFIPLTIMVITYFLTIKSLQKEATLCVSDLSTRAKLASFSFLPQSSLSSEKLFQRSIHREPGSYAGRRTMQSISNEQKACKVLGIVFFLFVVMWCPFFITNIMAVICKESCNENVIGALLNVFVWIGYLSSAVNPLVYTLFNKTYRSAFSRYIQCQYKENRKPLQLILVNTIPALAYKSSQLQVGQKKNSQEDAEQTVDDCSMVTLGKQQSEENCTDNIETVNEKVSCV
Dopamine D2 receptor, sequence (P61169 whole entry): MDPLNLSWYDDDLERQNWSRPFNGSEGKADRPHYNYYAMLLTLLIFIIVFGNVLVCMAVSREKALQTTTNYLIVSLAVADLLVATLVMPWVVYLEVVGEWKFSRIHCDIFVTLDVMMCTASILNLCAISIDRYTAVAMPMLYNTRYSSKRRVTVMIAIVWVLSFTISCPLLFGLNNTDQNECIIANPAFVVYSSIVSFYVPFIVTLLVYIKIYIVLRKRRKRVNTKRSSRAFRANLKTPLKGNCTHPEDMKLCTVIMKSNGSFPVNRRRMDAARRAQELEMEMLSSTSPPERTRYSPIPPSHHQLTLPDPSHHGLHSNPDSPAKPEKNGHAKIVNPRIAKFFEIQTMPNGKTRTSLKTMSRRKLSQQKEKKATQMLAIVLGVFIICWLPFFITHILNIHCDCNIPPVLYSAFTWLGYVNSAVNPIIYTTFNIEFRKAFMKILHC
Serotonin (5-HT) uptake, sequence (P31652 whole entry): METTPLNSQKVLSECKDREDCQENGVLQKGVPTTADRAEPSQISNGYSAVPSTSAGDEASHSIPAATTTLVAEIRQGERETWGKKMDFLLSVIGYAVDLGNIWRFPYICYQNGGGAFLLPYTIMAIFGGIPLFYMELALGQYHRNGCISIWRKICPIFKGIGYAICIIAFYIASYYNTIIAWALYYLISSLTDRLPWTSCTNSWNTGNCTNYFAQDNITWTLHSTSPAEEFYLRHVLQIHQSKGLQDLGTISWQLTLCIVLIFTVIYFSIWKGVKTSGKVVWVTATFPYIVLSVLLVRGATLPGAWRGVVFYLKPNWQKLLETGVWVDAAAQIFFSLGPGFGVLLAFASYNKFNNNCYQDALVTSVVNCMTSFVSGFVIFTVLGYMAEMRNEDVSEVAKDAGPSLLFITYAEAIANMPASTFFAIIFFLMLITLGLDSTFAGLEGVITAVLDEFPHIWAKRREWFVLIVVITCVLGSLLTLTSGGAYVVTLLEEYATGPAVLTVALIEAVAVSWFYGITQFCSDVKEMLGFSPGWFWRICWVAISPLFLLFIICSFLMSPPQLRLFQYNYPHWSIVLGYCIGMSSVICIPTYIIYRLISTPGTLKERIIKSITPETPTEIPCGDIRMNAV

Row | SMILES | Ki (Dopamine D2 receptor) [nM] | inhibition at 0.3 µM (Serotonin (5-HT) uptake) [%] | Ki [1] [nM] | Ki ([1]; hydrochloride) [nM]
1 | O=c1ccc2ccc(OCCCCN3CCN(c4cccc5sccc45)CC3)cc2[nH]1 [Example 1, 7-[4-(4-benzo[b]thiophen-4-yl-piperazin-1-yl)butoxy]-1H-quinolin-2-one] | 0.2 | 92.4 | 2.3 | 
2 | O=c1[nH]c2ccccc2cc1OCCN1CCN(c2cccc3sccc23)CC1 [Example 2, 3-[2-(4-benzo[b]thiophen-4-yl-piperazin-1-yl)ethoxy]-1H-quinolin-2-one] |  | 78.8 | 1.5 | 
3 | Cc1cc(=O)[nH]c2cc(OCCCN3CCN(c4cccc5sccc45)CC3)ccc12 [Example 3, 7-[3-(4-benzo[b]thiophen-4-yl-piperazin-1-yl)propoxy]-4-methyl-1H-quinolin-2-one] | 0.5 | 84.8 | 2.3 | 
4 | Cc1cc(=O)[nH]c2cc(OCCCCN3CCN(c4cccc5sccc45)CC3)ccc12 [Example 4, 7-[4-(4-benzo[b]thiophen-4-yl-piperazin-1-yl)butoxy]-4-methyl-1H-quinolin-2-one] | 0.5 | 91 | 4.9 | 
5 | Cc1cc2ccc(OCCCCN3CCN(c4cccc5sccc45)CC3)cc2[nH]c1=O [Example 6, 7-[4-(4-benzo[b]thiophen-4-yl-piperazin-1-yl)butoxy]-3-methyl-1H-quinolin-2-one] | 0.8 | 91.3 |  | 
6 | O=C1CCc2ccc(OCCCCN3CCN(c4cccc5sccc45)CC3)cc2N1 [Example 11, 7-[4-(4-benzo[b]thiophen-4-yl-piperazin-1-yl)butoxy]-3,4-dihydro-1H-quinolin-2-one] |  |  | 5.7 | 
7 | O=C1CCc2ccc(OCCCCN3CCN(c4cccc5sccc45)CC3)cc2N1 [Example 12, 7-[4-(4-benzo[b]thiophen-4-yl-piperazin-1-yl)butoxy]-3,4-dihydro-1H-quinolin-2-one hydrochloride] |  |  |  | 2.1
8 | O=C1CCc2ccc(OC/C=C\CN3CCN(c4cccc5sccc45)CC3)cc2N1 [Example 13, 7-[4-(4-benzo[b]thiophen-4-yl-piperazin-1-yl)-(Z)-2-butenyloxy]-3,4-dihydro-1H-quinolin-2-one] | 2.4 | 77 |  | 
9 | O=C1CCc2ccccc2N1CCCCCN1CCN(c2cccc3sccc23)CC1 [Example 22, 1-[5-(4-benzo[b]thiophen-4-yl-piperazin-1-yl)pentyl]-3,4-dihydro-1H-quinolin-2-one hydrochloride] | 4 |  |  | 
10 | O=C1NCCc2cc(OCCCN3CCN(c4cccc5sccc45)CC3)ccc21 [Example 25, 6-[3-(4-benzo[b]thiophen-4-yl-piperazin-1-yl)propoxy]-3,4-dihydro-2H-isoquinolin-1-one] |  | 91.9 | 4.6 | 
11 | O=C1NCCc2ccc(OCCCN3CCN(c4cccc5sccc45)CC3)cc21 [Example 28, 7-[3-(4-benzo[b]thiophen-4-yl-piperazin-1-yl)propoxy]-3,4-dihydro-2H-isoquinolin-1-one] | 1.2 |  |  | 
12 | CCN1CCc2ccc(OCCCN3CCN(c4cccc5sccc45)CC3)cc2C1=O [Example 31, 7-[3-(4-benzo[b]thiophen-4-yl-piperazin-1-yl)propoxy]-2-ethyl-3,4-dihydro-2H-isoquinolin-1-one dihydrochloride] | 1.4 |  |  | 
13 | CN1CCc2ccc(OCCCCN3CCN(c4cccc5sccc45)CC3)cc2C1=O [Example 32, 7-[4-(4-benzo[b]thiophen-4-yl-piperazin-1-yl)butoxy]-2-methyl-3,4-dihydro-2H-isoquinolin-1-one hydrochloride] | 1.5 |  |  | 
14 | O=c1[nH]ccc2ccc(OCCCN3CCN(c4cccc5sccc45)CC3)cc12 [Example 35, 7-[3-(4-benzo[b]thiophen-4-yl-piperazin-1-yl)propoxy]-2H-isoquinolin-1-one] | 1.6 |  |  | 
15 | Cn1ccc2ccc(OCCCN3CCN(c4cccc5sccc45)CC3)cc2c1=O [Example 36, 7-[3-(4-benzo[b]thiophen-4-yl-piperazin-1-yl)propoxy]-2-methyl-2H-isoquinolin-1-one hydrochloride] |  |  | 2.1 | 
16 | COc1ccc2ccn(CCCCN3CCN(c4cccc5sccc45)CC3)c(=O)c2c1 [Example 38, 2-[4-(4-benzo[b]thiophen-4-yl-piperazin-1-yl)butyl]-7-methoxy-2H-isoquinolin-1-one hydrochloride] |  |  | 7.3 | 
17 | O=c1c2cc(O)ccc2ccn1CCCCN1CCN(c2cccc3sccc23)CC1 [Example 39, 2-[4-(4-benzo[b]thiophen-4-yl-piperazin-1-yl)butyl]-7-hydroxy-2H-isoquinolin-1-one hydrobromide] | 1.2 |  |  | 
18 | O=C1CCc2cc(OCCCN3CCN(c4cccc5sccc45)CC3)cc(F)c2N1 [Example 116] | 4.5 |  | 4.2 | 
19 | Cc1cccc2cc(OCCCN3CCN(c4cccc5sccc45)CC3)c(=O)[nH]c12 [Example 117] | 4.7 |  |  | 
20 | O=c1ccc2cc(OCCCN3CCN(c4cccc5sccc45)CC3)cc(F)c2[nH]1 [Example 118] | 3.5 |  | 3.4 | 
21 | O=C1CCc2c(cccc2OCCCN2CCN(c3cccc4sccc34)CC2)N1 [Example 122] | 3.3 |  | 2.9 | 
22 | O=C1CCc2cc(CO)c(OCCCN3CCN(c4cccc5sccc45)CC3)cc2N1 [Example 139] | 0.2 |  |  | 
23 | CC(=O)Nc1ccc(OCCCN2CCN(c3cccc4sccc34)CC2)c2c1NC(=O)CC2 [Example 155] | 2.3 |  | 3 | 
24 | O=c1ccc2cc(OCCCCN3CCN(c4cccc5sccc45)CC3)cc(F)c2[nH]1 [Example 184] | 2.6 |  | 4.3 | 
25 | Cc1cc(=O)[nH]c2ccc(OCCCCN3CCN(c4cccc5sccc45)CC3)cc12 [Example 185] | 2.7 |  | 5 | 
26 | O=C1CCc2cccc(OCCCCN3CCN(c4cccc5sccc45)CC3)c2N1 [Example 186] | 2.3 |  | 8.8 | 
27 | O=c1ccc2cccc(OCCCCN3CCN(c4cccc5sccc45)CC3)c2[nH]1 [Example 188] | 1.6 |  | 6.3 | 
28 | O=C1CCc2c(O)ccc(OCCCN3CCN(c4cccc5sccc45)CC3)c2N1 [Example 190] | 0.8 |  |  | 
